The text below walks through data of PMC4887296 (Biochemistry, 2016).

SMILES strings stand for the structures. Where two headings read alike, the source gives them in different places.

As usually defined, the Km is the concentration of substrate that gives half-maximal velocity. As usually defined, the Kd is the equilibrium constant for the complex coming apart. The term Ki denotes a measure of affinity in units of concentration, obtained from inhibition or displacement.

Assay [1] addresses T1, wild-type ypFabV (Yersinia pestis, UniProt Q8Z9U1). Type of assay: biochemical.
The target in assay [2] is Wt ypFabV (Yersinia pestis, UniProt Q8Z9U1). Kind of assay: biochemical. Type of assay: binding.
Sequence of Wt ypFabV (Q8Z9U1 whole entry, looked up): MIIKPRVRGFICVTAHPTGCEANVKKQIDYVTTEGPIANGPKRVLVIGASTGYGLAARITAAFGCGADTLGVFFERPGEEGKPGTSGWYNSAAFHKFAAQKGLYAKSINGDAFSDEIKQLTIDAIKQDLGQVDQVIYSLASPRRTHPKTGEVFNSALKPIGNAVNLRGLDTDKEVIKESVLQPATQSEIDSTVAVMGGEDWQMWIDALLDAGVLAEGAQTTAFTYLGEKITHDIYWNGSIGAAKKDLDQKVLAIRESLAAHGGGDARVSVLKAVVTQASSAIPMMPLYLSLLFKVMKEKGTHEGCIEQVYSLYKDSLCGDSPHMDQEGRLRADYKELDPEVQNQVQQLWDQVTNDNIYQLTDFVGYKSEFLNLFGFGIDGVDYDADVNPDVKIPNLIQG
Assay [3] addresses T1, wild-type ypFabV. Type of assay: biochemical. The source holds these as a separate data set.

T1 sequence (Q8Z9U1 whole entry, looked up): as above

For the molecule `CCCCCCCCC/C=C/C(=O)SCCNC(=O)CCNC(=O)[C@H](O)C(C)(C)COP(=O)(O)OP(=O)(O)OC[C@H]1O[C@@H](n2cnc3c(N)ncnc32)[C@H](O)[C@@H]1OP(=O)(O)O` [ddCoA, trans-2-dodecenoyl-CoA], in assay [1], the “kcat (global fit)” value was 97.67 ± 6.47 s⁻¹ and the “kcat, wild-type ypFabV” value was determined as 91.13 ± 7.1 s⁻¹. Besides, in assay [1] (read-out: KM (global fit)), the Km was 19 ± 1 µM. Also, the Michaelis-Menten constant (Km) in assay [1] (read-out: KM, wild-type ypFabV) is 14 ± 1 µM. In assay [2], this molecule had a Kd of 13 ± 1 µM.

Regarding `CCCCCCC/C=C/C(=O)SCCNC(=O)CCNC(=O)[C@H](O)C(C)(C)COP(=O)(O)OP(=O)(O)OC[C@H]1O[C@@H](n2cnc3c(N)ncnc32)[C@H](O)[C@@H]1OP(=O)(O)O` [trans-2-decenoyl-CoA], the “kcat, wild-type ypFabV” value in assay [1] was 5.53 ± 0.333 s⁻¹. In assay [1] (read-out: KM, wild-type ypFabV), the Km amounted to 23 ± 3 µM.

As to `CCCCCCCCCCCC(=O)SCCNC(=O)CCNC(=O)[C@H](O)C(C)(C)COP(=O)(O)OP(=O)(O)OC[C@H]1O[C@@H](n2cnc3c(N)ncnc32)[C@H](O)[C@@H]1OP(=O)(O)O` [lauroyl-CoA, Lauroyl-CoA], in assay [3], the “product inhibition pattern with respect to NADH, wild-type ypFabV” value is on record as “noncompetitive” and the “product inhibition pattern with respect to ddCoA, wild-type ypFabV” value is reported as “noncompetitive”.

With `NC(=O)c1ccc[n+]([C@@H]2O[C@H](COP(=O)([O-])OP(=O)(O)OC[C@H]3O[C@@H](n4cnc5c(N)ncnc54)[C@H](O)[C@@H]3O)[C@@H](O)[C@H]2O)c1` [NAD^+], in assay [3], the “product inhibition pattern with respect to NADH, wild-type ypFabV” value is “competitive” and the “product inhibition pattern with respect to ddCoA, wild-type ypFabV” value is “noncompetitive”.

Take `CCCCC/C=C/C(=O)SCCNC(=O)CCNC(=O)[C@H](O)C(C)(C)COP(=O)(O)OP(=O)(O)OC[C@H]1O[C@@H](n2cnc3c(N)ncnc32)[C@H](O)[C@@H]1OP(=O)(O)O` [trans-2-octenoyl-CoA]: the “kcat, wild-type ypFabV” value in assay [1] is 0.267 ± 0.017 s⁻¹. Besides, the Km in assay [1] (read-out: KM, wild-type ypFabV) was found to be 7 ± 1 µM.

As for `NC(=O)C1=CN([C@@H]2O[C@H](COP(=O)(O)OP(=O)(O)OC[C@H]3O[C@@H](n4cnc5c(N)ncnc54)[C@H](O)[C@@H]3O)[C@@H](O)[C@H]2O)C=CC1` [NADH], in assay [1] (read-out: KM (global fit)), the Km was determined as 10 ± 1 µM. In addition, the Ki in assay [1] (read-out: Ki, NADH) came to 22 ± 3 µM. The dissociation constant Kd in assay [2] (read-out: Kd Wt ypFabV, pH 8) turned out to be 13 ± 1 µM.
